Results on 1 compound are retold here after patent US20230089557A1, “METHODS OF TREATING DLBCL USING BTK INHIBITORS AND COMBINATIONS THEREOF” (BEIGENE SWITZERLAND GMBH, priority 2020, published 2023).

The test deals with Non-GCB DLBCL PDX models. The experiment in a line: Compound 1 efficacy (TGI) in non-GCB DLBCL PDX models by EBV status. It is filed as in vivo, mice. The following applies: p.o. 7.5 mg/kg BID. From the text: DLBCL patient-derived xenografted (PDX) models were established in immunodeficient NCG (NOD-Prkdcem26Cd52Il2rgem26Cd22/NjuCrl) mice. These models were classified into GCB and non-GCB subgroups based on immunohistochemistry (IHC) staining using Hans algorithm. Non-GCB DLBCL PDX models were classified into Epstein-Barr virus (EBV) negative and EBV positive subgroups. For efficacy studies, tumor tissues were inoculated subcutaneously into NCG mice. When tumors reached 100˜200 mm^3, mice were randomized into each group with 7˜10 mice/group based on tumor volume. Compound 1 was formulated with 0.5% methyl cellulose as vehicle and treatment was started on the day of randomized grouping. Compound 1 was administrated p.o., 7.5 mg/(kg body weight), BID. Tumor volumes were measured twice weekly in two dimensions using a caliper, and the volume were expressed in mm^3 using the formula:
V=0.5(a×b^2) where a and b are the long and short diameters of the tumor, respectively.
Tumor growth inhibition (TGI) was calculated using the following formula:
% TGI=100×[1−(treatmentvt−treatmentv0)/(vehiclevt−Vehiclev0)]
Treatmentvt=tumor volume of treatment group at time t.
treatmentv0=tumor volume of treatment group at time of treatment started. […]
Average TGI of each model was used and represented as a dot point in the figure. P value was calculated using two tails t test to compare difference between groups.

For `C=CC(=O)N1CCC([C@@H]2CCNc3c(C(N)=O)c(-c4ccc(Oc5ccccc5)cc4)nn32)CC1` [Compound 1, (S)-7-(1-acryloylpiperidin-4-yl)-2-(4-phenoxyphenyl)-4,5,6,7-tetra-hydropyrazolo[1,5-a]pyrimidine-3-carboxamide], the “TGI (mean±SD)” value stood at 78.00±43.41% (EBV negative non-GCB DLBCL models) and 33.25±22.41% (EBV positive non-GCB DLBCL models).
